Data from ChEMBL document CHEMBL1131457, “cis-[PtCl2(4,7-H-5-methyl-7-oxo[1,2,4]triazolo[1,5-a]pyrimidine)2]: a sterically restrictive new cisplatin analogue. Reaction kinetics with model nucleobases, DNA interaction studies, antitumor activity, and structure-activity relationships” (J Med Chem, 1998).

Legend:
Format in all cases: functional, cell-based
[1] = system: A121; assay: Dose at which compound exhibits cytotoxicity in the A121 ovarian carcinoma cell line.; conditions: Homo sapiens
[2] = system: A121; assay: Cytotoxic effect (tumor cell growth inhibition) on the human cell line A121 ovarian carcinoma at the dose of […]
[3] = system: A121; assay: Cytotoxic effect (tumor cell growth inhibition) on the human cell line A121 ovarian carcinoma at the dose of […]
[4] = system: MCF7; assay: Cytotoxic effect (tumor cell growth inhibition) on the human cell line MCF-7 breast carcinoma at a dose of […]
[5] = system: MCF7; assay: Dose at which compound exhibits cytotoxicity in the MCF-7 cell line.; conditions: Homo sapiens

cis-[PtCl2(Hmtpo-N3)2].2H2O
ID50 [1]: 14.3 µM
Cytotoxic effect [2]: 53%
Cytotoxic effect [3]: 84%
Cytotoxic effect [4]: 54.8%
ID50 [5]: 33.4 µM
